Assay results published in patent US8053453B2, “Pyrazolone compounds and thrombopoietin receptor activator” (Nissan Chemical Industries, Ltd., priority 2002, dated 2011).

Biological target: T1, human TPO receptor (Homo sapiens, UniProt P40238)
T1 construct: expressed in transfected cells
T1 sequence (P40238 26-635): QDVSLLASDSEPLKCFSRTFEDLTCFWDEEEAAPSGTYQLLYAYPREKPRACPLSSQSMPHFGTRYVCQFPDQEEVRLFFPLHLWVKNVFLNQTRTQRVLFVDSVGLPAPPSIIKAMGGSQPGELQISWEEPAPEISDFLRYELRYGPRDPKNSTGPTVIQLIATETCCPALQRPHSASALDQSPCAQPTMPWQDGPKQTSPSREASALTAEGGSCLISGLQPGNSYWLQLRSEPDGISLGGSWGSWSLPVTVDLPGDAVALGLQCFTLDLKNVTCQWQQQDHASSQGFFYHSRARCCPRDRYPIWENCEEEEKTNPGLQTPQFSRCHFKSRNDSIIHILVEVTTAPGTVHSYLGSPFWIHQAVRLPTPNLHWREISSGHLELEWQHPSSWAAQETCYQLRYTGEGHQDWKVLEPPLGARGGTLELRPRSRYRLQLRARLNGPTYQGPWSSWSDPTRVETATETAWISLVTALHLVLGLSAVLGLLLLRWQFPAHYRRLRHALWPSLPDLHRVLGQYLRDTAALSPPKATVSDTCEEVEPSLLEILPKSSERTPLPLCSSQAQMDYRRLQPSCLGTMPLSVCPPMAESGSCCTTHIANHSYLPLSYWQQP
Test: Proliferation of TPO-dependent cell line UT7/EPO-mpl, WST-8 reagent (Assay Example 5)
Type: cell-based
Details: WST-8, 4 days; for Efficacy (%) (maximal growth rate): growth with 10 ng/ml TPO = 100%
Experimental: Human leukemic cell line UT7/EPO-mpl was washed twice with PBS and suspended in IMDM containing 10% FBS at a cell density of 6×10^4 cells/ml. The cell suspension was transferred to a 96-well tissue culture plate (CORNING) in 100-μl aliquots. Then either TPO or the following Synthetic Examples, each dissolved in DMSO, were diluted 83-fold with IMDM containing 10% FBS and added to the aforementioned cell suspension in 20-μl aliquots. The suspension was incubated in a CO2 incubator (5% CO2, 37° C.) for 4 days. Cell proliferation was assayed using WST-8 reagent (Kishida Chemical, Co. Ltd.) according to instructions by the manufacturer. A 10-μl aliquot of 5 mM WST-8 reagent solution was added to each well of the tissue culture plate and the plate was incubated at 37° C. for 4 h. The formazan pigment generated was detected by measuring the absorbance at 450 nm with a 96-well microplate reader (Nihon Molecular Devices, SpectraMax 190). The concentration of each compound that yields a growth rate corresponding to 50% of the growth of human leukemic cell line UT7/EPO-mpl observed in the presence of 10 ng/ml TPO (EC50T) and the maximal growth rate achieved by the same compound (efficacy), expressed by taking the value with human leukemic cell line UT7/EPO-mpl in the presence of 10 ng/ml TPO as 100% standard, are summarized in Table 9.

EC50T (concentration yielding 50% of the growth observed with 10 ng/ml TPO) [µg/mL]	Efficacy (%) (maximal growth rate)	EC50 (read-out: EC50T (concentration yielding 50% of the growth observed with 10 ng/ml TPO) (converted)) [nM]	Compound
0.0033	95	–	CC(NNC(=O)c1ccc(O)cc1O)=C1C(=O)N(c2ccc(C)c(C)c2)N=C1C(F)(F)F [compound 94]
0.052	71	–	COC(=O)c1ccc(C(=O)NNC(C)=C2C(=O)N(c3ccc(C)c(C)c3)N=C2C(F)(F)F)cc1 [compound 95]
0.0033	93	–	CC(NNC(=O)c1ccc(C(=O)O)cc1)=C1C(=O)N(c2ccc(C)c(C)c2)N=C1C(F)(F)F [compound 96]
0.025	94	–	CC1=NN(c2ccc(C(C)(C)C)cc2)C(=O)C1=CNNC(=O)c1ccc(C(=O)O)cc1 [compound 97]
0.031	96	–	COC(=O)c1ccc(C(=O)NNC(C)=C2C(=O)N(c3ccc(C(C)(C)C)cc3)N=C2C)s1 [compound 98]
0.0039	110	–	CC1=NN(c2ccc(C(C)(C)C)cc2)C(=O)C1=C(C)NNC(=O)c1ccc(C(=O)O)s1 [compound 99]
0.059	107	–	CC1=NN(c2ccc3ccccc3n2)C(=O)C1=C(C)NNC(=O)c1ccc(C(=O)O)cc1 [compound 100]
0.018	100	–	COC(=O)c1ccc(C(=O)NNC(C)=C2C(=O)N(c3ccc(Cl)nn3)N=C2C)cc1 [compound 101]
0.069	100	–	CC1=NN(c2ccc(C(F)(F)F)cn2)C(=O)C1=C(C)NNC(=O)c1ccc(C(=O)O)cc1 [compound 102]
–	90	10.5	CC1=NN(c2ccc(C(C)(C)C)cc2)C(=O)C1=C(C)NNC(=O)c1ccc(-c2nnn[nH]2)cc1 [compound 103]
